Reference: US7541380B2, “Use of rapamycin and structural analogues thereof” (Universita' Degli Studi do Ferrara, priority 2002, dated 2009)

Experiments:
mRNA for gamma-globin [1] = test: Quantitative RT-PCR of mRNA for gamma-globin in human erythroid precursors isolated from peripheral blood (two-stage culture of Fibach et al.); type: cell-based; conditions: for mRNA for gamma-globin (increase compared with untreated control erythroid precursors): rapamycin 3 μM, hydroxyurea 120 μM, control = 1
From the text: In order to check whether rapamycin was capable, in addition to inducing K562 cell differentiation, of stimulating the production of mRNA for gamma-globin in human erythroid precursors isolated from peripheral blood, the technique published by Fibach et al. (19, 20) was used. This technique provides for two stages: in the first stage, the cells isolated from peripheral blood of a subject who is healthy or suffering from a haemopoietic pathology, such as sickle cell anaemia or beta-thalassaemia, are sown in a culture medium to which 10% of conditioned medium derived from the vesicle carcinoma cell line 5637 has been added. The second stage consists in cultivating the isolated cells in a suitable culture medium, supplemented by the erythropoietin hormone, 30% foetal bovine serum, 2-mercaptoethanol, albumin, glutamine and desamethasone in order to permit the proliferation and maturing of stem cells of the erythroid type. In this stage the cells can be treated with potential HbF inducers.

human cell line K562 [2] = test: Erythroid differentiation of K562 cells (benzidine-positive cells); conditions: 20 nM, mean ± SD of 6 experiments, control 4.1%
Protocol: (§1) The level of differentiation was evaluated by analysing the positive reaction of the cells to benzidine (3). […] The production of haemoglobin was evaluated by electrophoresis on cellulose acetate and by staining the gel with a solution based on benzidine/H2O2 (3). […] The expression of genes coding for gamma-globins was evaluated by quantitative RT-PCR (reverse transcriptase PCR) (3).

human cell line K562 [3] = test: Haemoglobin production in K562 cells by electrophoresis on cellulose acetate and benzidine/H2O2 staining; type: cell-based; conditions: K562 cells treated with rapamycin
Protocol: as §1

human cell cultures = test: Cytotoxic effect in human cell cultures; type: cell-based; conditions: compared with hydroxyurea
Protocol: The activity of rapamycin as an inducer of erythroid cell differentiation and the production of mRNA for gamma-globin was evaluated in human cell cultures. The results of this study are illustrated in the Tables given in the section relating to the Examples.

mRNA for gamma-globin [4] = test: Quantitative RT-PCR of mRNA for gamma-globin in K562 cells; type: cell-based, human; conditions: 20 nM, 6 days of induction, control = 1
Protocol: as §1

| Compound | mRNA for gamma-globin (increase compared with untreated control erythroid precursors) (mRNA for gamma-globin [1]) | Erythroid differentiation = percentage of K562 cells that react positively to benzidine (human cell line K562 [2]) [%] | Erythroid differentiation = percentage of K562 cells that react positively to benzidine (human cell line K562 [2]; listed as rapamycin) | Chief haemoglobin produced (human cell line K562 [3]) | Increase in the production of mRNA for gamma-globin compared with the same untreated cells (mRNA for gamma-globin [1]) [times] | Cytotoxic effect (human cell cultures) | mRNA for gamma-globin (increase compared with untreated control K562 cells) (mRNA for gamma-globin [4]) |
| --- | --- | --- | --- | --- | --- | --- | --- |
| NC(=O)NO [Hydroxyurea, hydroxyurea] | 2.25 |  |  |  |  |  |  |
| CO[C@H]1C[C@@H]2CC[C@@H](C)[C@@](O)(O2)C(=O)C(=O)N2CCCC[C@H]2C(=O)O[C@H]([C@H](C)C[C@@H]2CC[C@@H](O)[C@H](OC)C2)CC(=O)[C@H](C)/C=C(\C)[C@@H](O)[C@@H](OC)C(=O)[C@H](C)C[C@H](C)/C=C/C=C/C=C/1C [Rapamycin, rapamycin] | 3.73 | 45.5 ± 5.8 | 40-45% | Hb Portland (alpha2gamma2) | 3.75 | much lower than that of hydroxyurea | 2.4 |
